{"source": "patent US11564913B2", "about": "“Compositions and methods for treating cancer” (Children's Hospital Medical Center, priority 2019, dated 2023)", "key": {"Nalm-1 cells": {"test_system": "Nalm-1 cells", "assay": "Cell survival, trypan blue exclusion", "assay_type": "cell-based", "method": "(B) IODVA1-dependent survival curves of empty vector (red circles) or p190-BCR-ABL1 (black circles) expressing Ba/F3 cells and of Nalm-1 cells. […] (C) p190-BCR-ABL1 (grey line) or Mieg3 (black line) expressing Ba/F3 cells were allowed to grow for 1 day, treated with IODVA1 (IO1, 1 μM) for 1 day, and washed (black arrow). Cells were counted for 7 days using trypan blue exclusion. (D) Ba/F3 cells stably expressing p190-BCR-ABL1 were subjected to colony formation assay in soft agar (0.25% Noble Agar in RPMI/FBS/IL-3) in the presence of DMSO or IODVA1 (1 or 10 μM). Colonies were allowed to form for 10 days then stained with iodonitrotetrazolium (1 mg/mL). Data are representative of at least three independent experiments in triplicates. Note the smaller colony size in 1 μM IODVA1 treatment group. (E) Leukemic burden (%) of treated mice before treatment (left upper panel) and at the indicated treatment time was analyzed by flow cytometry of bone marrow aspirates as population containing B220^+/CD43^+ pro-B cells. (F) Count (%) of residual leukemic (EGFP^+-BCR-ABL1) cells in peripheral blood at weeks 3 and 5 for the secondary transplant mice from FIG. 1D. […]\nIODVA1 specifically targets BCR-ABL B-ALL cells in vitro. […] We then assessed survival of p190-BCR-ABL-transformed CD34^+ cells in the presence of IODVA1 by trypan blue exclusion. […]"}, "MCF7 cells": {"test_system": "MCF7 cells", "assay": "Cell spreading on fibronectin", "assay_type": "cell-based", "details": "30 min exposure, serum-free", "method": "(§1) FIG. 6: IODVA1 inhibits cell-substratum and cell-cell interactions. (A) IODVA1 impedes spreading of MCF7 and MDA-MB-231 cells on fibronectin. MCF7, T47D, and MDA-MB-231 cells were incubated on fibronectin coated coverslips for 10 min, then further incubated with the indicated concentrations of IODVA1 for 30 min in serum-free media, fixed and observed by bright field microscopy. Areas of single cells were calculated from 6 random fields (no less than 300 cells total per treatment group). Results shown are mean±s.e.m. of a single experiment and are representative of three independent experiments. (B) Effects of IODVA1 treatment on spheroid formation in MCF10A, MCF7, T47D, and MDA-MB-231 cells. […] Aggregates and spheroids were dissociated with accutase and trituration, and the number of live cells was determined by trypan blue exclusion. […]\n(§2) Applicants assessed if IODVA1 interferes with cell spreading on the extracellular matrix, an event that is also governed by the rearrangement of the actin cytoskeleton. […] No changes in the area in T47D cells were detected, although more rounded cells in the presence of IODVA1 were observed.\n(§3) For cell spreading, MDA-MB-231, MCF7 and T47D were seeded on fibronectin-coated coverslips in serum-free media. […] Six random fields were imaged under 20× objective and cell area of individual cells were quantified to assess the degree of spreading (ImageJ). […]"}, "T47D cells": {"test_system": "T47D cells", "assay": "Cell spreading on fibronectin", "assay_type": "cell-based", "details": "0-3 μM, 30 min", "method": "as §1, §2, §3"}, "[1]": {"test_system": "p210-BCR-ABL(T315I) leukemia", "assay": "TKI-resistant p210-BCR-ABL(T315I) mouse model", "assay_type": "in vivo, mice", "excerpt": "LDBM cells were transduced with TKI-resistant p210-BCR-ABL1(T315I) (gatekeeper mutant) and transplanted into recipient mice as in FIG. 10. […] (B) Flow cytometric analysis of leukemic progenitor (EGFP^+) B-cells in peripheral blood (PB) at the indicated week.\nTo further test this idea, we evaluated the ability of IODVA1 to increase the survival of mice harboring p210-BCR-ABL(T315I).\nC57Bl/6 mice were commercially obtained (The Jackson Laboratory and Harlan Laboratories) and used as donors and/or recipients of transduction/transplantation models under a protocol approved by The Cincinnati Children's Hospital Medical Center Institutional Animal Care and Use Committee.\nAfter a single wash in PBS, cells were stained with anti-B220 APC-Cy7 antibody. Stained cells were washed once and analyzed by flow cytometry."}}, "data": [{"smiles": "OC1(c2ccccn2)N=C(Nc2nc3ccccc3[nH]2)N=C1c1ccccn1", "note": "(centres unmarked) [IODVA1, (Z)-2-((1H-benzo[d]imidazol-2-yl)imino)-4,5-di(pyridin-2-yl)-2,5-dihydro-1H-imidazol-5-ol]", "values": [{"measurement": "EC50", "setting": "Nalm-1 cells", "result": 680, "unit": "nM"}, {"measurement": "concentration at which spreading is interfered with (decrease in cell area)", "setting": "MCF7 cells", "result": 0.3, "unit": "µM"}, {"measurement": "changes in cell area", "setting": "T47D cells", "result": "No changes"}, {"measurement": "treated mice surviving until day 65", "setting": "[1]; 37 days post last treatment", "result": 80, "unit": "%"}, {"measurement": "treated mice surviving till day 80", "setting": "[1]; 52 days post last treatment", "result": 60, "unit": "%"}, {"measurement": "decrease in leukemic progenitor levels (EGFP+/B220+) in peripheral blood", "setting": "[1]; week 5", "result": 84, "unit": "%"}, {"measurement": "decrease in leukemic progenitor levels (EGFP+/B220+) in peripheral blood", "setting": "[1]; week 10", "result": 91, "unit": "%"}, {"measurement": "decrease in leukemic progenitor levels (EGFP+/B220+) in peripheral blood", "setting": "[1]; week two", "result": 24, "unit": "%"}]}]}
